Values quoted from earlier work as cited in patent US20090181905A1, “CRYSTALLINE FORM OF 1' -(1-METHYLETHYL)-4' -[(2-FLUORO-4-METHOXYPHENYL)METHYL]-5' -METHYL-1H-PYRAZOL-3' -O-BETA-D-GLUCOPYRANOSIDE, A METHOD FOR ITS PREPARATION AND THE USE THEREOF FOR PREPARING MEDICAMENTS” (BOEHRINGER INGELHEIM INTERNATIONAL GMBH, priority 2006, published 2009).

Tested on: HbA1c
Settings: metformin on its own, in the diabetic

In the case of `CN(C)C(=N)N=C(N)N` [metformin], the “average improvement in the HbA1c value” is listed as 1.0-1.5%.
